How the values were obtained:
[1] = system: subjects with recurrent and/or metastatic nasopharyngeal carcinoma who have failed platinum-based therapy; assay: Phase III clinical study of mitoxantrone hydrochloride liposome injection combined with capecitabine versus capecitabine monotherapy: efficacy evaluation (best overall response, RECIST 1.1); type: in vivo, human; set-up: key to Best overall response: complete response (CR); partial response (PR); stable disease (SD); disease progression (PD)
Description: (§1) Example 1. A Randomized, Open-Label, Positive-Controlled, Multi-center Phase III Clinical Study of Mitoxantrone Hydrochloride Liposome Injection Combined with Capecitabine Versus Capecitabine Monotherapy in Subjects with Recurrent and/or Metastatic Nasopharyngeal Carcinoma Who Have Failed Platinum-Based Therapy.
This study is a randomized, open-label, positive-controlled, multicenter phase III clinical study whose objective is to evaluate the efficacy and safety of mitoxantrone hydrochloride liposome injection combined with capecitabine versus capecitabine monotherapy in subjects with recurrent and/or metastatic nasopharyngeal carcinoma.
(§2) Subjects with recurrent and/or metastatic nasopharyngeal carcinoma who have failed first-line or second-line platinum-based therapy will be enrolled. After screening, eligible subjects are stratified-randomized (stratification factors: (1) ECOG score: 0 vs. 1; (2) whether a liver metastasis is present: any metastasis is present vs. all metastases are not present; (3) gender: male vs. female) in a 1:1 ratio into an experimental group and a control group.
(§3) The experimental group receives treatment with mitoxantrone hydrochloride liposome injection (20 mg/m^2) combined with capecitabine (1000 mg/m^2, twice daily), with every 3 weeks as a treatment cycle. The mitoxantrone hydrochloride liposome is administered on day 1 of each cycle, and capecitabine is administered on days 1 to 14. After 8 cycles of treatment with the mitoxantrone hydrochloride liposome, the investigator will assess the patient's risk-benefit ratio to determine whether to continue treatment until disease progression or intolerance, and capecitabine monotherapy as maintenance treatment. The control group receives capecitabine monotherapy, with every 3 weeks as a treatment cycle. Capecitabine monotherapy is administered on days 1 to 14 of each cycle. Sparse blood collection is conducted for all subjects in the experimental group.
During the study, the Independent Data Monitoring Committee (IDMC) will conduct safety assessments after two cycles of treatment for the first 40 subjects enrolled (about 20 per group) and throughout the study. Enrollment will continue during the safety assessment period. All subjects will be treated until disease progression according to the RECIST1.1 criteria, intolerable toxicity, withdrawal of informed consent, initiation of new anti-tumor therapy, loss to follow-up, death, or end of study, whichever occurs first. If the subject has no more treatment options after the investigator first determines that the subject has experienced disease progression, and the investigator determines that the subject can continue to benefit from the trial treatment, the subject may continue to receive the trial treatment in this trial until disease progression as assessed by the IRC or the investigator determines that the subject no longer benefits. […]

[2] = system: subjects with recurrent and/or metastatic nasopharyngeal carcinoma who have failed platinum-based therapy; type: in vivo, human
Description: as §1, §2, §3
During the study, the Independent Data Monitoring Committee (IDMC) will conduct safety assessments after two cycles of treatment for the first 40 subjects enrolled (about 20 per group) and throughout the study. Enrollment will continue during the safety assessment period. All subjects will be treated until disease progression according to the RECIST1.1 criteria, intolerable toxicity, withdrawal of informed consent, initiation of new anti-tumor therapy, loss to follow-up, death, or end of study, whichever occurs first. If the subject has no more treatment options after the investigator first determines that the subject has experienced disease progression, and the investigator determines that the subject can continue to benefit from the trial treatment, the subject may continue to receive the trial treatment in this trial until disease progression as assessed by the IRC or the investigator determines that the subject no longer benefits.
• Objective response rate (ORR), disease control rate (DCR), and duration of response (DOR) as assessed by the investigator and the IRC • Progression-free survival (PFS) as assessed by the investigator • Frequency and severity of AEs (NCI CTCAE 5.0); changes in vital signs, physical examinations, electrocardiograms, and laboratory findings • Total mitoxantrone and free mitoxantrone plasma concentrations. • Note: The abbreviations described above have the following meanings: • PFS: progression-free survival, defined as the time between the initial treatment of study drug and the date of disease progression (PD) or death, whichever occurs first. • OS: overall survival, defined as the time from the initial treatment of the study drug to death from any cause. • ORR: objective response rate, defined as the proportion of subjects achieving complete response (CR) and partial response (PR). • DCR: disease control rate, defined as the proportion of subjects achieving complete response (CR), partial response (PR), and stable disease (SD). • DOR: duration of response, defined as the time from the first assessment of CR or PR to the first assessment of PD or death from any cause.

[3] = subjects evaluated for BOR (9 experimental group, 5 control group), by Jul. 31, 2023

**Q.** How did the Best overall response ([1]; subject S01005, ECOG 0, 1 line received, metastasis liver and lung) turn out when `CCCCCOC(=O)Nc1nc(=O)n([C@@H]2O[C@H](C)[C@@H](O)[C@H]2O)cc1F` [control group, capecitabine] was run?
**A.** SD

**Q.** What about the Best overall response ([1]; subject S13001, ECOG 1, 1 line received, metastasis liver, spleen, and bone) of the same molecule?
**A.** PD

**Q.** And the Best overall response ([1]; subject S14001, ECOG 1, 2 lines received, metastasis liver and bone)?
**A.** PD

**Q.** And the Best overall response ([1]; subject S24001, ECOG 1, 2 lines received, metastasis bone)?
**A.** PR

**Q.** And the Best overall response ([1]; subject S32001, ECOG 1, 1 line received, metastasis liver)?
**A.** PD

**Q.** And the “Best overall response (BOR): number of evaluated subjects with PD” value [1, 3]?
**A.** three

**Q.** What about the “Best overall response (BOR): number of evaluated subjects with PR” value [1, 3] of the same molecule?
**A.** one

**Q.** What about the “Best overall response (BOR): number of evaluated subjects with SD” value [1, 3] of the same molecule?
**A.** one

**Q.** What about the “Best overall response (BOR): percentage of evaluated subjects with PD” value [1, 3] of the same molecule?
**A.** 60%

**Q.** And the “Best overall response (BOR): percentage of evaluated subjects with PR” value [1, 3]?
**A.** 20%

**Q.** And the “Best overall response (BOR): percentage of evaluated subjects with SD” value [1, 3]?
**A.** 20%

**Q.** What about the “SAE: Acute epiglottitis” value ([2]; both, human, in vivo) of the same molecule?
**A.** 0 n (%)

**Q.** And the “SAE: Anemia” value ([2]; both, human, in vivo)?
**A.** 0 n (%)

**Q.** What about the “SAE: Bacterial pneumonia” value ([2]; both, human, in vivo) of the same molecule?
**A.** 1 (3.3%) n (%)

**Q.** What about the “SAE: Cancer pain” value ([2]; both, human, in vivo) of the same molecule?
**A.** 0 n (%)

**Q.** What about the “SAE: Dysphagia” value ([2]; both, human, in vivo) of the same molecule?
**A.** 1 (3.3%) n (%)

**Q.** And the “SAE: General fatigue” value ([2]; both, human, in vivo)?
**A.** 0 n (%)

**Q.** And the “SAE: Hypokalemia” value ([2]; both, human, in vivo)?
**A.** 0 n (%)

**Q.** What about the “SAE: Hyponatremia” value ([2]; both, human, in vivo) of the same molecule?
**A.** 0 n (%)

**Q.** What about the “SAE: Neutrophil count decreased” value ([2]; both, human, in vivo) of the same molecule?
**A.** 0 n (%)

**Q.** What about the “SAE: Oralmucositis” value ([2]; both, human, in vivo) of the same molecule?
**A.** 1 (3.3%) n (%)

**Q.** And the “SAE: Platelet count decreased” value ([2]; both, human, in vivo)?
**A.** 0 n (%)

**Q.** And the “SAE: Post-cardiac arrest resuscitation syndrome” value ([2]; both, human, in vivo)?
**A.** 1 (3.3%) n (%)

**Q.** What about the “SAE: Posterior-circulation ischemia” value ([2]; both, human, in vivo) of the same molecule?
**A.** 1 (3.3%) n (%)

**Q.** What about the “SAE: Pulmonary infection” value ([2]; both, human, in vivo) of the same molecule?
**A.** 0 n (%)

**Q.** And the “SAE: Severe pneumonia” value ([2]; both, human, in vivo)?
**A.** 1 (3.3%) n (%)

**Q.** And the “SAE: Sinusitis” value ([2]; both, human, in vivo)?
**A.** 0 n (%)

**Q.** And the “SAE: Upper airway obstruction” value ([2]; both, human, in vivo)?
**A.** 0 n (%)

**Q.** And the “SAE: White blood cell count decreased” value ([2]; both, human, in vivo)?
**A.** 0 n (%)

**Q.** And the “Subjects who experienced serious adverse events (SAEs), total” value ([2]; both, human, in vivo)?
**A.** 3 subjects

**Q.** And the “SAE: Death from unknown cause” value ([2]; experimental group N = 32, control group N = 30)?
**A.** 1 (3.3%) n (%)

**Q.** And the “Subjects who died (end of the study)” value ([2]; up to Jul. 31, 2023, 32 subjects experimental group, 30 subjects control group)?
**A.** two

From US20260021131A1, “USE OF MI[…] IN COMBINATION WITH CA[…] TREATING NASOPHARYNGEAL CARCINOMA” (CSPC ZHONGQI PHARMACEUTICAL TECHNOLOGY (SHIJIAZHUANG) CO., …, priority 2022, published 2026)
